Source: publication PMC5896380, “Selective imaging of cathepsin L in breast cancer by fluorescent activity-based probes” (Chemical Science, 2018)
Non-standard residues stand in square brackets, D forms with d. *: point of attachment. Phe(F5) = N[C@@H](Cc1c(F)c(F)c(F)c(F)c1F)C(=O)O; Phe(3,4-F2) = N[C@@H](Cc1ccc(F)c(F)c1)C(=O)O; Phe(2-Cl) = N[C@@H](Cc1ccccc1Cl)C(=O)O; Phe(3-F) = N[C@@H](Cc1cccc(F)c1)C(=O)O; ACC = NC(=O)Cc1cc(=O)oc2cc(N*)ccc12; hArg = N=C(N)NCCCC[C@H](N)C(=O)O; ClZ = O=C(OCc1ccccc1Cl)*; OBn = c1ccc(CO*)cc1

Experiments:
Format in all cases: biochemical
cathepsin K = biological target: T1, cathepsin K (Homo sapiens, UniProt P43235); assay: Kinetic parameters of ACC substrates with cathepsin K; details: Fig. 5B; pH 5.5, 37 °C; cathepsin K 5–20 nM; triplicate, SD below 15%
T1 construct: made in house
T1 sequence (P43235 115-329): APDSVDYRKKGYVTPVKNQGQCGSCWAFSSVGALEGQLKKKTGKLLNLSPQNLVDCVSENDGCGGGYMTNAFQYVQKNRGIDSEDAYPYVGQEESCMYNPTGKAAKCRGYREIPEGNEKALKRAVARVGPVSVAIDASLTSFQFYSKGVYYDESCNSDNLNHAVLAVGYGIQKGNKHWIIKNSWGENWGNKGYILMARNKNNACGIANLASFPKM
Procedure: (§1) All kinetic experiments were performed using fMax (Molecular Devices) and CLARIOStar (BMG LABTECH) spectrofluorimeters operating in kinetic mode using 96-well plates. ACC-labeled substrates were screened using 355 nm and 460 nm wavelengths (excitation and emission, respectively). […] The buffer was prepared at room temperature and the enzyme kinetic studies were performed at 37 °C.
(§2) Classic substrate velocity plots were analyzed according to Michaelis–Menten kinetics and a detailed protocol for the determination of kinetic parameters for ACC-tagged substrates is found elsewhere.[56] […] Experiments were repeated at least three times and results are presented as an average. The SDs were below 15%.

cathepsin S = biological target: T2, cathepsin S (Homo sapiens, UniProt P25774); assay: Kinetic parameters of ACC substrates with cathepsin S; details: Fig. 5B; pH 5.5, 37 °C; cathepsin S 5–20 nM; triplicate, SD below 15%
T2 construct: made in house
Procedure: as §1, §2

cathepsin B = biological target: T3, cathepsin B (Homo sapiens, UniProt P07858); assay: Kinetic parameters of ACC substrates with cathepsin B; details: Fig. 5B; pH 5.5, 37 °C; cathepsin B 4–15 nM; triplicate, SD below 15%
T3 construct: made in house
Procedure: as §1, §2

cathepsin L = biological target: T4, cathepsin L (Homo sapiens, UniProt P07711); assay: Kinetic parameters of ACC substrates with cathepsin L; details: Fig. 5B; pH 5.5, 37 °C; cathepsin L 0.1–0.5 nM; triplicate, SD below 15%
T4 construct: made in house
Procedure: as §1, §2

cathepsin V = biological target: T5, cathepsin V (Homo sapiens, UniProt O60911); assay: Kinetic parameters of ACC substrates with cathepsin V; details: Fig. 5B; pH 5.5, 37 °C; cathepsin V 10–20 nM; triplicate, SD below 15%
T5 construct: made in house
Procedure: as §1, §2

T2 sequence (P25774 115-331): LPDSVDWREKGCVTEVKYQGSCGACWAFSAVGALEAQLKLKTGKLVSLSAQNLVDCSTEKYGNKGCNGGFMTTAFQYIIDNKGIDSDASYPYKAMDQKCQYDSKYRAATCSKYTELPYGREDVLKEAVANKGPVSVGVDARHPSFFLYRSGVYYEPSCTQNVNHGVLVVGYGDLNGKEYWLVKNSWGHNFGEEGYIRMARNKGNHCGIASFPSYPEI
T5 sequence (O60911 114-334): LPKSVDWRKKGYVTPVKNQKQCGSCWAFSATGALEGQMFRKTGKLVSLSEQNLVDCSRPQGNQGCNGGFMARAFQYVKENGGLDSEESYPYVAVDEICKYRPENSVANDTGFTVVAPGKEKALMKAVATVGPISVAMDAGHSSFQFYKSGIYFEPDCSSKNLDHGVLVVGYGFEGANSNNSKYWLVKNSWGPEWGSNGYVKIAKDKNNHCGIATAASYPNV
T4 sequence (P07711 114-333): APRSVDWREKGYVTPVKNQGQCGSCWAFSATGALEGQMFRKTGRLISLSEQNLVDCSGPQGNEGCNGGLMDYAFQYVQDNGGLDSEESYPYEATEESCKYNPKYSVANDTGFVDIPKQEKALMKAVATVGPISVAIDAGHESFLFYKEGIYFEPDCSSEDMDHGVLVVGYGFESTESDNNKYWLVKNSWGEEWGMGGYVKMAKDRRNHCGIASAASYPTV

Row | Substance | kcat/KM Cath-K (cathepsin K) | kcat/KM Cath-S (cathepsin S) | kcat/KM Cath-B (cathepsin B) | kcat/KM Cath-L (cathepsin L) | kcat/KM Cath-V (cathepsin V)
1 | Ac-H[dV][Phe(3,4-F2)]R-{ACC} (SMILES CC(=O)N[C@@H](Cc1c[nH]cn1)C(=O)N[C@@H](C(=O)N[C@@H](Cc1ccc(F)c(F)c1)C(=O)N[C@@H](CCCNC(=N)N)C(=O)Nc1ccc2c(CC(N)=O)cc(=O)oc2c1)C(C)C) | 1,010 M^-1s^-1 | 580 M⁻¹ s⁻¹ | 2,520 M^-1s^-1 | 6,031,000 M^-1s^-1 | 10,100 M^-1s^-1
2 | Ac-H[dV][Phe(F5)][hArg]-{ACC} (SMILES CC(=O)N[C@@H](Cc1c[nH]cn1)C(=O)N[C@@H](C(=O)N[C@@H](Cc1c(F)c(F)c(F)c(F)c1F)C(=O)N[C@@H](CCCCNC(=N)N)C(=O)Nc1ccc2c(CC(N)=O)cc(=O)oc2c1)C(C)C) | < 10 M⁻¹ s⁻¹ | < 10 M⁻¹ s⁻¹ | 187 M⁻¹ s⁻¹ | 317,900 M^-1s^-1 | 175 M⁻¹ s⁻¹
3 | Ac-H[dV][Phe(2-Cl)]R-{ACC} (SMILES CC(=O)N[C@@H](Cc1c[nH]cn1)C(=O)N[C@@H](C(=O)N[C@@H](Cc1ccccc1Cl)C(=O)N[C@@H](CCCNC(=N)N)C(=O)Nc1ccc2c(CC(N)=O)cc(=O)oc2c1)C(C)C) | 13,000 M^-1s^-1 | 2,760 M^-1s^-1 | 1,360 M^-1s^-1 | 5,689,000 M^-1s^-1 | 11,600 M^-1s^-1
4 | Ac-H[dV][Phe(3-F)]R-{ACC} (SMILES CC(=O)N[C@@H](Cc1c[nH]cn1)C(=O)N[C@@H](C(=O)N[C@@H](Cc1cccc(F)c1)C(=O)N[C@@H](CCCNC(=N)N)C(=O)Nc1ccc2c(CC(N)=O)cc(=O)oc2c1)C(C)C) | 5,700 M^-1s^-1 | 814 M⁻¹ s⁻¹ | 6,280 M^-1s^-1 | 8,432,000 M^-1s^-1 | 12,600 M^-1s^-1
5 | Ac-H[dV][Phe(F5)]L-{ACC} (SMILES CC(=O)N[C@@H](Cc1c[nH]cn1)C(=O)N[C@@H](C(=O)N[C@@H](Cc1c(F)c(F)c(F)c(F)c1F)C(=O)N[C@@H](CC(C)C)C(=O)Nc1ccc2c(CC(N)=O)cc(=O)oc2c1)C(C)C) | 646 M⁻¹ s⁻¹ | 912 M⁻¹ s⁻¹ | 684 M⁻¹ s⁻¹ | 135,600 M^-1s^-1 | 325 M⁻¹ s⁻¹
6 | Ac-H[dV][Phe(F5)]E(OBn)-{ACC} (SMILES CC(=O)N[C@@H](Cc1c[nH]cn1)C(=O)N[C@@H](C(=O)N[C@@H](Cc1c(F)c(F)c(F)c(F)c1F)C(=O)N[C@@H](CCC(=O)OCc1ccccc1)C(=O)Nc1ccc2c(CC(N)=O)cc(=O)oc2c1)C(C)C) | 626 M⁻¹ s⁻¹ | 1,110 M^-1s^-1 | 941 M⁻¹ s⁻¹ | 599,800 M^-1s^-1 | 710 M⁻¹ s⁻¹
7 | Ac-H[dV][Phe(F5)]K(ClZ)-{ACC} (SMILES CC(=O)N[C@@H](Cc1c[nH]cn1)C(=O)N[C@@H](C(=O)N[C@@H](Cc1c(F)c(F)c(F)c(F)c1F)C(=O)N[C@@H](CCCCNC(=O)OCc1ccccc1Cl)C(=O)Nc1ccc2c(CC(N)=O)cc(=O)oc2c1)C(C)C) | 361 M⁻¹ s⁻¹ | < 10 M⁻¹ s⁻¹ | 1,320 M^-1s^-1 | 686,700 M^-1s^-1 | 329 M⁻¹ s⁻¹
